Measurements taken from ChEMBL document CHEMBL1149990, “1-(2-METHOXYPHENYL)-4-ALKYLPIPERAZINES: EFFECT OF THE N-4 SUBSTITUENT ON THE AFFINITY AND SELECTIVITY FOR DOPAMINE D4 RECEPTOR” (Bioorg Med Chem Lett, 1997).

Tests used:
D(4) dopamine receptor = molecular target: T1, D(4) dopamine receptor (Homo sapiens, UniProt P21917); test: Displacement of [3H]YM-09151-2 from human Dopamine receptor D4.2 expressed in baculovirus Sf9 cells
T1 sequence (P21917 whole entry): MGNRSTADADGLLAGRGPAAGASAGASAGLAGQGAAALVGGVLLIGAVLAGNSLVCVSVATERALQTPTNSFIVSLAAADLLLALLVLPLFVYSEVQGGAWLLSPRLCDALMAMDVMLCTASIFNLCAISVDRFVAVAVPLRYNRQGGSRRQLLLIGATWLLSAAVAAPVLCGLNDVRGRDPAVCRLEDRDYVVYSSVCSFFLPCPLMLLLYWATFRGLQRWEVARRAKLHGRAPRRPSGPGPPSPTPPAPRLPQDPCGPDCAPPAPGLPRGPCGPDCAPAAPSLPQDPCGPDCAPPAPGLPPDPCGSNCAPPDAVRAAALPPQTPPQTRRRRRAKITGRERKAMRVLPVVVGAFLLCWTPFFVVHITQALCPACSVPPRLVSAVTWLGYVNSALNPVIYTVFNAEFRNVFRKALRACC

[1] = molecular target: T2, Adrenergic receptor alpha-1 (Rattus norvegicus, UniProt P15823+P23944+P43140); test: Displacement of [3H]prazosin from Alpha-1 adrenergic receptor of rat cerebral cortex; format: tissue-based
T2 sequence (P15823 whole entry): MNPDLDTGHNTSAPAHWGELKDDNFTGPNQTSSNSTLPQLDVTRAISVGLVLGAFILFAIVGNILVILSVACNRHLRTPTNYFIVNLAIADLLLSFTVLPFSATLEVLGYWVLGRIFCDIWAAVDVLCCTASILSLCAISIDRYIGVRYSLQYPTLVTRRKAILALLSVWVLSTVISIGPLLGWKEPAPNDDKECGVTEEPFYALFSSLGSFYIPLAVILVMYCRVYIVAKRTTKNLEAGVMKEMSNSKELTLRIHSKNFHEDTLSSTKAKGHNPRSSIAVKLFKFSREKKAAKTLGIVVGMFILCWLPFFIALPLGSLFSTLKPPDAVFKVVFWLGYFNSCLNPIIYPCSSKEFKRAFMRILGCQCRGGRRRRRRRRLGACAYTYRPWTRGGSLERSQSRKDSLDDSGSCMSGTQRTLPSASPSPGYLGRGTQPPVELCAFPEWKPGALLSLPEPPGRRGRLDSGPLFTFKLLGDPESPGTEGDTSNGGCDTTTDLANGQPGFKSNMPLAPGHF
T2 sequence (P23944 whole entry): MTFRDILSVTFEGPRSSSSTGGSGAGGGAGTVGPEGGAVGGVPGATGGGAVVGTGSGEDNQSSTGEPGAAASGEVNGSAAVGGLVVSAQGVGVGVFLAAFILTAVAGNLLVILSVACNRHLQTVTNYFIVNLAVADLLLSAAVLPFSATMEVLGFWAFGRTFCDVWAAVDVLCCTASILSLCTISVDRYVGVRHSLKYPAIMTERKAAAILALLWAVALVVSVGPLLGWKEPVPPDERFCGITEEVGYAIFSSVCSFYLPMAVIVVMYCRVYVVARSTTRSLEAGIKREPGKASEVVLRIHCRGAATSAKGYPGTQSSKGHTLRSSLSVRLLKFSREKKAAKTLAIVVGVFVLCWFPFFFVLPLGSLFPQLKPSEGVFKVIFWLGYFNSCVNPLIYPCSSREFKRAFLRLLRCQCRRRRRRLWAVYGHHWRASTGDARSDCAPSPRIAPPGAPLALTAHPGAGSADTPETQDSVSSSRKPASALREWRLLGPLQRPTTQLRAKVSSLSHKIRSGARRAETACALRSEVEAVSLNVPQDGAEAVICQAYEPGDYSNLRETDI
T2 sequence (P43140 whole entry): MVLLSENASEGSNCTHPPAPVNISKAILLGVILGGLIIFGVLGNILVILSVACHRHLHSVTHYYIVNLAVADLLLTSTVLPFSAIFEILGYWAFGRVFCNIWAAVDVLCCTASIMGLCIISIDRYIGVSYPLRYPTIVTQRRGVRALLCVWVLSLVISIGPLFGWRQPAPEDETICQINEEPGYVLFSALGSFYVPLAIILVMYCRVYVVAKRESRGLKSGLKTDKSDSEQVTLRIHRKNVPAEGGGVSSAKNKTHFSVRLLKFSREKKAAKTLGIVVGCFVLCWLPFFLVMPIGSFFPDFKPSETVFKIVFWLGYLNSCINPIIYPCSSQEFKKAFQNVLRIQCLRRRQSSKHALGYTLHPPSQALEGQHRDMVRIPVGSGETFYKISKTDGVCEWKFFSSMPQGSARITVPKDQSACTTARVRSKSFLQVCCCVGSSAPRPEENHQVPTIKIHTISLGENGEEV

Row | SMILES | Ki (D(4) dopamine receptor) | Ki [1]
1 | COc1ccccc1N1CCN(Cc2cccc(-c3ccccc3)c2)CC1 | 8 nM | 
2 | COc1ccccc1N1CCN(CCCCC2CCCc3c(OC)cccc32)CC1 (stereo not given) | 43 nM | 65 nM
3 | COc1cccc(C(=O)CCCCN2CCN(c3ccccc3OC)CC2)c1 | 43 nM | 41 nM
4 | COc1ccccc1N1CCN(CCNC(=O)C2CCCc3c(OC)cccc32)CC1 (stereo not given) | 22 nM | 
5 | COc1cccc(C(=O)CCCN2CCN(c3ccccc3OC)CC2)c1 | 1.7 nM | 19 nM
6 | COc1ccccc1N1CCN(CCC(=O)NC2CCCc3c(OC)cccc32)CC1 (stereo not given) | 67 nM | 125 nM
7 | COc1ccccc1N1CCN(CCCC2CCCc3c(OC)cccc32)CC1 (stereo not given) |  | 1 nM
8 | COc1ccccc1N1CCN(CCCNC(=O)C2CCCc3cccc(OC)c32)CC1 (stereo not given) | 49 nM | 70 nM
9 | COc1cc(N)c(Cl)cc1C(=O)NCCN1CCN(c2ccccc2OC)CC1 | 19 nM | 8 nM
